Measured values from US11786492B2, “Therapeutic agent for phosphodiesterase inhibition and its related disorders” (Novalead Pharma Inc, priority 2017, dated 2023).
Marks after values point to notes of the source that are not given here.

Columns and labels:
[1] = tested on: PDE1 (Bovine brain); assay: Radiolabeled enzyme assay PDE1; assay type: biochemical; settings: 1.01 μM [3H]cAMP+cAMP
Protocol: (§1) Enzyme assays have been optimized for incubation time, substrate concentration and method of end-product determination.

[2] = tested on: PDE4 (Human U937 cells); assay: Radiolabeled enzyme assay PDE4; assay type: biochemical; settings: 1.01 μM [3H]cAMP+cAMP
Protocol: as §1

[3] = tested on: Imiquimod induced psoriasis in BALB/c mice; assay: Imiquimod induced psoriasis model in Balb/c mice; settings: for % inhibition of Ear inflamn. / Histopathology Scores Epidermal Thickness / Histopathology Scores Hyperkeratosis / Histopathology Scores Rete Peg Prolifern. / PASI score / Spleen weight / IL23 Levels (pg/ml): twice daily; for IL23 Levels (pg/ml): ear tissue lysate
Protocol: BALB/c mice (Sex: Female, Age: 7-8 Weeks) were used for induction of psoriasis using IMQ. Topical application of imiquimod (IMQ) in mice can induce and exacerbate psoriasis closely resembling human psoriasis. […] 3%, 4% and 5% and positive control of Tenovate (Clobetasol) 0.05% cream. In all 63 mg cream containing 5% of IMQ was applied to dorsal area (shaved back) and right ear for 8 days. Topical formulations from Example 7 were used during this experiment.
The parameters investigated were ear thickness change, % inhibition of ear inflammation, Psoriatic Area Severity Index (PASI). Histopathology was performed of right ear and dorsal skin by H & E staining. The biomarker in this study was inflammatory cytokine IL-23 analyzed by ELISA obtained from tissue lysate of ear region where IMQ and doses were applied.

[4] = biological target: T1, PDE3 (Human platelets) (Homo sapiens, UniProt Q14432); assay: Radiolabeled enzyme assay PDE3; assay type: biochemical; settings: read-out: % inhibition at 30 μM, 1.01 μM [3H]cAMP+cAMP
T1 construct: PDE3 (Human platelets); from tissue; host or cells: human platelets
T1 sequence (Q14432 whole entry): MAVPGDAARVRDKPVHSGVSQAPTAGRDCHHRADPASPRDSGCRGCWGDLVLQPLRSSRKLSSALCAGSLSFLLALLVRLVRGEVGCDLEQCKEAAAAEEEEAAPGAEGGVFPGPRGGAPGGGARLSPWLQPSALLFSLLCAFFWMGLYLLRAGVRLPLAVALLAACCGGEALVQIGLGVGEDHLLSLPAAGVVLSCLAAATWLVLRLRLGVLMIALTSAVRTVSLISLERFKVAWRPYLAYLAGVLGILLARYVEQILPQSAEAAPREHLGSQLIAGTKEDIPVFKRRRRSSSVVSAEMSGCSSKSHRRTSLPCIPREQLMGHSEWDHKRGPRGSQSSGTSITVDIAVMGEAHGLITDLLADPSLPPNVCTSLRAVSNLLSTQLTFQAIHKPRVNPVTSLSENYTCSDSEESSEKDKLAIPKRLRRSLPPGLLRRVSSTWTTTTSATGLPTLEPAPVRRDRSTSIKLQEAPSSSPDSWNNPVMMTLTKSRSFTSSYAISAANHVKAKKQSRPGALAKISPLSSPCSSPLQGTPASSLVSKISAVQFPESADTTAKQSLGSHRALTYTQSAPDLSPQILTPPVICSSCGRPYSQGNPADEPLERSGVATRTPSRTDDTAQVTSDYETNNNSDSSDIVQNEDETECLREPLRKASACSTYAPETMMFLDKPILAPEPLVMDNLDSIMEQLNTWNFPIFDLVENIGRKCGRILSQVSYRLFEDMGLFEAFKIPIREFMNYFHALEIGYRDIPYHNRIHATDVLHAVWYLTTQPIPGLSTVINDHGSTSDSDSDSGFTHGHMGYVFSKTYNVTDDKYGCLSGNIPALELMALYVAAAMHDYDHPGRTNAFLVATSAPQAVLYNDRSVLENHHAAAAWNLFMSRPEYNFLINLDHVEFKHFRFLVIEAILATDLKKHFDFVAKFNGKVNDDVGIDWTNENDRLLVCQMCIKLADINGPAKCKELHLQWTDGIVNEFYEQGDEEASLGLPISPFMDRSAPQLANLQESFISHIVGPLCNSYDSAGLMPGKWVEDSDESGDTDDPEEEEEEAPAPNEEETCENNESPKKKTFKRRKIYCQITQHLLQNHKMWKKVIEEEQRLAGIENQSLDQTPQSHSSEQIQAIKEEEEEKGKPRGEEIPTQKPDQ
Protocol: as §1

[5] = biological target: T2, PDE5 (Human platelets) (Homo sapiens, UniProt O76074); assay: Radiolabeled enzyme assay PDE5; assay type: biochemical; settings: read-out: % inhibition at 30 μM, 1.01 μM [3H]cGMP+cGMP
T2 construct: PDE5 (Human platelets); from tissue; host or cells: human platelets
Protocol: as §1

[6] = biological target: T3, PDE2 (Human platelets) (Homo sapiens, UniProt O00408); assay: Radiolabeled enzyme assay PDE2; assay type: biochemical; settings: read-out: % inhibition at 30 μM, 1.01 μM [3H]cAMP+cAMP
T3 construct: PDE2 (Human platelets); from tissue; host or cells: human platelets
T3 sequence (O00408 whole entry): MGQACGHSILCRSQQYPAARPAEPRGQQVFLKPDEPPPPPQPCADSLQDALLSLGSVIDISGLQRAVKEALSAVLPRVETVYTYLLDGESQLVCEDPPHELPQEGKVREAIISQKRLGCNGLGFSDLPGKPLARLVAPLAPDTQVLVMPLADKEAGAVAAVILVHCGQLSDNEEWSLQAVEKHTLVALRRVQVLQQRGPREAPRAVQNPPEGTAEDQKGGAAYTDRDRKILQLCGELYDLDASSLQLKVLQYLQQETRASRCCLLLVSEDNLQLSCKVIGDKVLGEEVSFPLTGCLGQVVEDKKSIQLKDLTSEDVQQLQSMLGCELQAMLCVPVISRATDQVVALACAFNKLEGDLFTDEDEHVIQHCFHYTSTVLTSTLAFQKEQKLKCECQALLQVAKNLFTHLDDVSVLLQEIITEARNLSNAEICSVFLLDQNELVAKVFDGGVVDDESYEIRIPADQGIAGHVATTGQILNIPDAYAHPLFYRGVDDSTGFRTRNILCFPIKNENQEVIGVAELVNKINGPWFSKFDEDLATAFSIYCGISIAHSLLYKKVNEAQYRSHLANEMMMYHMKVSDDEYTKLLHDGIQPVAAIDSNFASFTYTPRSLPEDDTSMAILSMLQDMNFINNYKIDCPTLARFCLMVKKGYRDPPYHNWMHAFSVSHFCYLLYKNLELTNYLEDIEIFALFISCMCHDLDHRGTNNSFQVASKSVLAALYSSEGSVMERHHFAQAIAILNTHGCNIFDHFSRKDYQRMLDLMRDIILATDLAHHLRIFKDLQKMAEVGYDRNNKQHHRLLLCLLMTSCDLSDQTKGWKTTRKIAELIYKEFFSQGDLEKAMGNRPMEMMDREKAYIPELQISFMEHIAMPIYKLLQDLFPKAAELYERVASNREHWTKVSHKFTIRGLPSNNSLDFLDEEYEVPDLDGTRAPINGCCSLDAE
Protocol: as §1

[7] = tested on: HaCaT cells; assay: Cell viability of HaCaT cells, Alamar blue; assay type: cell-based, human; settings: for Concentration which exhibited cell viability of 70%: HaCaT cells, maximum concentration for stimulation study
Protocol: HaCaT cells were maintained in T-75 cm2 flask in Dulbecco's modified Eagle medium supplemented with FBS (10%), L-glutamine (2 mM), penicillin (100 ug/ml), streptomycin (100 ug/ml) at 37° C. in 5% CO2 incubator. Cell growth was maintained to 70-80% confluence for seeding and vehicle used was 1% DMSO. The cell viability was checked at various time points using Alamar blue and fluorescence readings were taken at excitation of 544 nm and emission of 590 nm.

[8] = tested on: human PBMCs; assay: Cell viability of human PBMCs, Alamar blue; assay type: cell-based; settings: for Concentration which exhibited cell viability of 70%: PBMCs, maximum concentration for stimulation study
Protocol: Fresh human blood from healthy volunteer was collected in anticoagulant (5 mM) ethylene diamine tetra acetic acid (EDTA) containing tubes. The growth medium used was RPMI-1640 medium (with 3% FBS) and incubated at 37° C. for 60 mins in a 5% CO2 incubator with vehicle used as 1% DMSO. The cell viability was checked at various time points using Alamar blue and fluorescence readings were taken at excitation of 544 nm and emission of 590 nm.

[9] = biological target: PDE5A (Homo sapiens, UniProt O76074); assay: Fluorescence polarization assay PDE5A; assay type: biochemical; settings: substrate cGMP
Protocol: (§2) An experiment to check inhibition of various subtypes of the target Phosphodiesterase (PDE) enzyme in in-vitro assay was performed. […] PDE1A, PDE2A, PDE4A, PDE4B, PDE4C, PDE4D, PDE5A, PDE7A, PDE9A, PDE10A.

[10] = biological target: PDE4C (Homo sapiens, UniProt Q08493); assay: Fluorescence polarization assay PDE4C; assay type: biochemical; settings: substrate cAMP
Sequence of PDE4C (Q08493 whole entry, species assumed): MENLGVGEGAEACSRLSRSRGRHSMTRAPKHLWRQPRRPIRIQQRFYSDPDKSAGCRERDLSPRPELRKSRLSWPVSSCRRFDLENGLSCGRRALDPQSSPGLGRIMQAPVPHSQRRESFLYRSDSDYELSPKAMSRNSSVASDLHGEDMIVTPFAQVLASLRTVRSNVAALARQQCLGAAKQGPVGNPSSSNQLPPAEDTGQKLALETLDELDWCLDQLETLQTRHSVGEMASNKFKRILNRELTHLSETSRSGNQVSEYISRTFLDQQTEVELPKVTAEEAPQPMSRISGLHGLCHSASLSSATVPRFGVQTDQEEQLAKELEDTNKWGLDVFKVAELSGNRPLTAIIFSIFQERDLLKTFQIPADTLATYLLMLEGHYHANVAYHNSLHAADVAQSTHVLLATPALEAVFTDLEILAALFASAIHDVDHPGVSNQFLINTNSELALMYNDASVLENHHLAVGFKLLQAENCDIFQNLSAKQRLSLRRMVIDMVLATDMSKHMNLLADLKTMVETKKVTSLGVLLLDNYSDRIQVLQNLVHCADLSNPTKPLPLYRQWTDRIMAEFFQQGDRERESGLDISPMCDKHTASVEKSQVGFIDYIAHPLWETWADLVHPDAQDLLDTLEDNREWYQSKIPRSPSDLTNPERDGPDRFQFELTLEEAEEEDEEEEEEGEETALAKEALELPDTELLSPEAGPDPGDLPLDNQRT
Protocol: as §2

[11] = biological target: PDE7A (Homo sapiens, UniProt Q13946); assay: Fluorescence polarization assay PDE7A; assay type: biochemical; settings: substrate cAMP
Sequence of PDE7A (Q13946 whole entry, species assumed): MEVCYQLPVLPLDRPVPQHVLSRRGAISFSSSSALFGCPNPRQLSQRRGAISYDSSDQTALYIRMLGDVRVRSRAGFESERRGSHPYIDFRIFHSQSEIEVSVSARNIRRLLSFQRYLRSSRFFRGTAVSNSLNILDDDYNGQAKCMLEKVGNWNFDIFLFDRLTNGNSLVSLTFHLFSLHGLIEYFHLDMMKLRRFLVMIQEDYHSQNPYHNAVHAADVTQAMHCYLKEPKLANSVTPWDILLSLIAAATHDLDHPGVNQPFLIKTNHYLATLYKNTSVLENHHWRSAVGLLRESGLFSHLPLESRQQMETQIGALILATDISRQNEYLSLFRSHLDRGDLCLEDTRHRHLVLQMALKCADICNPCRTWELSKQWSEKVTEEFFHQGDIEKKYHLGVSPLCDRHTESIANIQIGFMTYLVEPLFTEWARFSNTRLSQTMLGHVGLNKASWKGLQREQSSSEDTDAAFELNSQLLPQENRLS
Protocol: as §2

CC(=O)Oc1ccccc1C(=O)Nc1ncc([N+](=O)[O-])s1 [Nitazoxanide]
% inhibition at 30 μM [1]: 18%
% inhibition at 30 μM [2]: 89%
% inhibition of Ear inflamn. ([3]; 3% topical): −5.9%
Histopathology Scores Epidermal Thickness ([3]; 3% topical): 5.6 ± 0.4
Histopathology Scores Hyperkeratosis ([3]; 3% topical): 1.0 ± 0.0^$
Histopathology Scores Rete Peg Prolifern. ([3]; 3% topical): 1.2 ± 0.2
PASI score ([3]; 3% topical): 14.2 ± 5.1
Spleen weight ([3]; 3% topical, Day 9): 203.6 ± 22.6 mg
IL23 Levels (pg/ml) ([3]; 3% topical): 147.79^# pg/ml
% inhibition of Ear inflamn. ([3]; 4% topical): 26.1%
Histopathology Scores Epidermal Thickness ([3]; 4% topical): 4.7 ± 0.3
Histopathology Scores Hyperkeratosis ([3]; 4% topical): 1.3 ± 0.2
Histopathology Scores Rete Peg Prolifern. ([3]; 4% topical): 1.0 ± 0.3
PASI score ([3]; 4% topical): 21.5 ± 3.4
Spleen weight ([3]; 4% topical, Day 9): 274.7 ± 54.3 mg
IL23 Levels (pg/ml) ([3]; 4% topical): 128.67* pg/ml
% inhibition of Ear inflamn. ([3]; 5% topical): 40.9%
Histopathology Scores Epidermal Thickness ([3]; 5% topical): 5.3 ± 0.6
Histopathology Scores Hyperkeratosis ([3]; 5% topical): 1.1 ± 0.1
Histopathology Scores Rete Peg Prolifern. ([3]; 5% topical): 1.1 ± 0.1
PASI score ([3]; 5% topical): 13.1 ± 1.6
Spleen weight ([3]; 5% topical, Day 9): 204.1 ± 15.3 mg
IL23 Levels (pg/ml) ([3]; 5% topical): 89.45* pg/ml
Spleen weight vs disease control (in words) ([3]; Niclosamide 2%, Nitazoxanide 3% and 5%, Clobetasol 0.05%, Day 9): marginal reduction in spleen weight
IL-23 level in ear tissue homogenates (in words) ([3]; different doses): reduction of IL-23 level
Hyperkeratosis (in words) ([3]; ear lobe histopathology): significant reduction in Hyperkeratosis
inhibition at 30 µM [4]: -4%
inhibition at 30 µM [5]: 9%
inhibition at 30 µM [6]: 13%
% Viability (±S.E.M.) ([7]; 0.1 μM, 24 hrs): 89 ± 1%
% Viability (±S.E.M.) ([7]; 0.1 μM, 48 hrs): 99 ± 9%
% Viability (±S.E.M.) ([7]; 0.1 μM, 72 hrs): 103 ± 3%
% Viability (±S.E.M.) ([7]; 1 μM, 24 hrs): 81 ± 3%
% Viability (±S.E.M.) ([7]; 1 μM, 48 hrs): 86 ± 8%
% Viability (±S.E.M.) ([7]; 1 μM, 72 hrs): 91 ± 2%
% Viability (±S.E.M.) ([7]; 10 μM, 24 hrs): 41 ± 1%
% Viability (±S.E.M.) ([7]; 10 μM, 48 hrs): 40 ± 2%
% Viability (±S.E.M.) ([7]; 10 μM, 72 hrs): 46 ± 3%
% Viability (±S.E.M.) ([7]; 50 μM, 24 hrs): 18 ± 1%
% Viability (±S.E.M.) ([7]; 50 μM, 48 hrs): 15 ± 2%
% Viability (±S.E.M.) ([7]; 50 μM, 72 hrs): 18 ± 1%
% Viability (±S.E.M.) ([7]; 100 μM, 24 hrs): 17 ± 1%
% Viability (±S.E.M.) ([7]; 100 μM, 48 hrs): 13 ± 1%
% Viability (±S.E.M.) ([7]; 100 μM, 72 hrs): 17 ± 1%
Concentration which exhibited cell viability of 70% [7]: 1 µM
% Viability (±S.E.M.) ([8]; 0.01 μM, 24 hrs): 97 ± 1%
% Viability (±S.E.M.) ([8]; 0.01 μM, 48 hrs): 106 ± 8%
% Viability (±S.E.M.) ([8]; 0.01 μM, 72 hrs): 113 ± 10%
% Viability (±S.E.M.) ([8]; 1 μM, 24 hrs): 91 ± 2%
% Viability (±S.E.M.) ([8]; 1 μM, 48 hrs): 105 ± 7%
% Viability (±S.E.M.) ([8]; 1 μM, 72 hrs): 106 ± 2%
% Viability (±S.E.M.) ([8]; 100 μM, 24 hrs): 76 ± 4%
% Viability (±S.E.M.) ([8]; 100 μM, 48 hrs): 42 ± 4%
% Viability (±S.E.M.) ([8]; 100 μM, 72 hrs): 11 ± 3%
Concentration which exhibited cell viability of 70% [8]: 50 µM

O=C(Nc1ncc([N+](=O)[O-])s1)c1ccccc1O [Tizoxanide]
IC50 [9]: 136 µM
IC50 [10]: 366 µM
IC50 [11]: 134 µM
% Viability (±S.E.M.) ([7]; 0.1 μM, 24 hrs): 76 ± 6%
% Viability (±S.E.M.) ([7]; 0.1 μM, 48 hrs): 114 ± 2%
% Viability (±S.E.M.) ([7]; 0.1 μM, 72 hrs): 112 ± 6%
% Viability (±S.E.M.) ([7]; 1 μM, 24 hrs): 74 ± 6%
% Viability (±S.E.M.) ([7]; 1 μM, 48 hrs): 91 ± 5%
% Viability (±S.E.M.) ([7]; 1 μM, 72 hrs): 91 ± 2%
% Viability (±S.E.M.) ([7]; 10 μM, 24 hrs): 34 ± 1%
% Viability (±S.E.M.) ([7]; 10 μM, 48 hrs): 35 ± 0%
% Viability (±S.E.M.) ([7]; 10 μM, 72 hrs): 43 ± 1%
% Viability (±S.E.M.) ([7]; 50 μM, 24 hrs): 24 ± 1%
% Viability (±S.E.M.) ([7]; 50 μM, 48 hrs): 20 ± 0%
% Viability (±S.E.M.) ([7]; 50 μM, 72 hrs): 25 ± 0%
% Viability (±S.E.M.) ([7]; 100 μM, 24 hrs): 20 ± 0%
% Viability (±S.E.M.) ([7]; 100 μM, 48 hrs): 13 ± 0%
% Viability (±S.E.M.) ([7]; 100 μM, 72 hrs): 20 ± 0%
Concentration which exhibited cell viability of 70% [7]: 1 µM
% Viability (±S.E.M.) ([8]; 0.01 μM, 24 hrs): 91 ± 3%
% Viability (±S.E.M.) ([8]; 0.01 μM, 48 hrs): 96 ± 3%
% Viability (±S.E.M.) ([8]; 0.01 μM, 72 hrs): 115 ± 1%
% Viability (±S.E.M.) ([8]; 1 μM, 24 hrs): 84 ± 2%
% Viability (±S.E.M.) ([8]; 1 μM, 48 hrs): 101 ± 4%
% Viability (±S.E.M.) ([8]; 1 μM, 72 hrs): 102 ± 3%
% Viability (±S.E.M.) ([8]; 100 μM, 24 hrs): 91 ± 5%
% Viability (±S.E.M.) ([8]; 100 μM, 48 hrs): 64 ± 2%
% Viability (±S.E.M.) ([8]; 100 μM, 72 hrs): 25 ± 2%
Concentration which exhibited cell viability of 70% [8]: 50 µM
